Patent US6743925B1, “Nitroimidazole derivative and diagnostic imaging agent containing the same” (Pola Chemical Industries, Inc., priority 1999, dated 2004)

Tested on: cancer-bearing mice (WHT/Ht albino mice), squamous-cell carcinoma and fibrosarcoma
Assay: Radiation intensity of each organ after intravenous injection to cancer-bearing mice
Assay type: in vivo
Description: Compound 4 of Example 4 was intravenously injected to cancer-bearing mice (WHT/Ht albino mice) (3 mice per group). Systemic frozen sections of each mouse were prepared 10, 30, 60, 120, and 150 minutes after intravenous injection, and the radiation intensity of each organ was measured. Squamous-cell carcinoma and fibrosarcoma were employed as cancer sources. When the sections was prepared, blood was collected separately, and the ratio of radiation intensity in each organ to that in blood was obtained.

[1] = 10 min. after intravenous injection
[2] = 30 min. after intravenous injection
[3] = 60 min. after intravenous injection
[4] = 120 min. after intravenous injection
[5] = 150 min. after intravenous injection

O=[N+]([O-])c1nccn1COC(CO)C[18F] (stereo not shown) [Compound 4, 1-[2-fluoro(^18F)-1-(hydroxymethyl)ethoxy]methyl-2-nitroimidazole]
radiation intensity, Blood [1]: 2.222 | radiation intensity, Bone [1]: 1.157 | radiation intensity, Brain [1]: 1.168 | radiation intensity, Fibrosarcoma [1]: 1.584 | radiation intensity, Heart [1]: 1.721 | radiation intensity, Intestine [1]: 1.697 | radiation intensity, Kidney [1]: 7.935 | radiation intensity, Liver [1]: 10.300 | radiation intensity, Lung [1]: 2.151 | radiation intensity, Muscle [1]: 1.576 | radiation intensity, Squamous carcinoma [1]: 2.192 | radiation intensity, Testis [1]: 0.861 | ratio of radiation intensity, Fibrosarcoma/blood [1]: 0.697 | ratio of radiation intensity, Squamous carcinoma/blood [1]: 0.893 | radiation intensity, Blood [2]: 1.068 | radiation intensity, Bone [2]: 0.617 | radiation intensity, Brain [2]: 0.815 | radiation intensity, Fibrosarcoma [2]: 1.319 | radiation intensity, Heart [2]: 0.929 | radiation intensity, Intestine [2]: 0.767 | radiation intensity, Kidney [2]: 5.667 | radiation intensity, Liver [2]: 5.018 | radiation intensity, Lung [2]: 1.347 | radiation intensity, Muscle [2]: 0.742 | radiation intensity, Squamous carcinoma [2]: 1.237 | radiation intensity, Testis [2]: 0.852 | ratio of radiation intensity, Fibrosarcoma/blood [2]: 1.234 | ratio of radiation intensity, Squamous carcinoma/blood [2]: 1.012 | radiation intensity, Blood [3]: 0.379 | radiation intensity, Bone [3]: 0.244 | radiation intensity, Brain [3]: 0.308 | radiation intensity, Fibrosarcoma [3]: 0.619 | radiation intensity, Heart [3]: 0.378 | radiation intensity, Intestine [3]: 0.533 | radiation intensity, Kidney [3]: 1.856 | radiation intensity, Liver [3]: 1.692 | radiation intensity, Lung [3]: 0.596 | radiation intensity, Muscle [3]: 0.314 | radiation intensity, Squamous carcinoma [3]: 0.466 | radiation intensity, Testis [3]: 0.466 | ratio of radiation intensity, Fibrosarcoma/blood [3]: 1.634 | ratio of radiation intensity, Squamous carcinoma/blood [3]: 1.384 | radiation intensity, Blood [4]: 0.117 | radiation intensity, Bone [4]: 0.253 | radiation intensity, Brain [4]: 0.116 | radiation intensity, Fibrosarcoma [4]: 0.421 | radiation intensity, Heart [4]: 0.216 | radiation intensity, Intestine [4]: 0.56 | radiation intensity, Kidney [4]: 0.699 | radiation intensity, Liver [4]: 0.730 | radiation intensity, Lung [4]: 0.353 | radiation intensity, Muscle [4]: 0.139 | radiation intensity, Squamous carcinoma [4]: 0.133 | radiation intensity, Testis [4]: 0.412 | ratio of radiation intensity, Fibrosarcoma/blood [4]: 3.601 | ratio of radiation intensity, Squamous carcinoma/blood [4]: 2.904 | radiation intensity, Blood [5]: 0.096 | radiation intensity, Bone [5]: 0.218 | radiation intensity, Brain [5]: 0.126 | radiation intensity, Fibrosarcoma [5]: 0.351 | radiation intensity, Heart [5]: 0.186 | radiation intensity, Intestine [5]: 0.488 | radiation intensity, Kidney [5]: 0.511 | radiation intensity, Liver [5]: 0.800 | radiation intensity, Lung [5]: 0.331 | radiation intensity, Muscle [5]: 0.159 | radiation intensity, Squamous carcinoma [5]: 0.101 | radiation intensity, Testis [5]: 0.139 | ratio of radiation intensity, Fibrosarcoma/blood [5]: 3.675 | ratio of radiation intensity, Squamous carcinoma/blood [5]: 2.357
